According to patent publication US12516022B2, “Derivatives of aryl hydrocarbon receptor agonists” (AZORA THERAPEUTICS, INC., priority 2021, dated 2026):

Columns and labels:
[1] = Indirubin levels in plasma, colon and lung of colitis mice, LC-MS/MS (Example 8); format: in vivo; settings: six hours after the last oral dose, indirubin molar equivalent of 15 mg/kg twice daily
Protocol: Five animals from each group in Example 7 were euthanized six hours after the last oral dose. At this time plasma, lung and colon was harvested. Colon was washed three times in cold phosphate buffered saline (PBS) to remove colon contents.
Indirubin was detected utilizing LC-MS/MS.
To prepare samples, an aliquot of 20 μL unknown sample, calibration standard, quality control, single blank and double blank samples were added to the 96-well plate. Samples (except the double blank) for plasma were quenched with 100 μL internal standard respectively (double blank sample was quenched with 100 μL acetonitrile (ACN)), samples (except the double blank) for liver, lung and colon were quenched with 80 μL internal standard respectively (double blank sample was quenched with 80 μL ACN), and then the mixture was vortex-mixed for 5 minutes at 800 rpm and centrifuged for 15 minutes at 3220 g (4000 rpm), at 4° C. 50 μL supernatant was transfer to another clean 96-well plate and the supernatant were directly injected for LC-MS/MS analysis.

[2] = Indirubin solubility in biorelevant media (FaSSIF, FaSSGF), HPLC; format: physicochemical; settings: FaSSIF 24 hr, 37° C., 5 μg/mL indirubin or molar equivalent
Protocol: Biorelevant media was prepared as per the supplier's (Biorelevant) method, using FaSSIF/FeSSIF/FaSSGF powders. In brief, FaSSGF media was prepared using 0.06 g/L FaSSIF/FeSSIF/FaSSGF powder in 2 g/L NaCl solution, pH adjusted to 1.6 with 1N HCl. FaSSIF media was prepared with 2.24 g/L FaSSIF/FeSSIF/FaSSGF powder in sodium phosphate buffer, pH adjusted to 6.5 with 1N NaOH. (Sodium phosphate buffer prepared as a 0.42 g/L NaOH, 3.95 g/L NaH2PO4·H2O, 6.19 g/L NaCl solution).
Solubility assessments were performed as follows. An individual flask was prepared for each media and time point. Flasks were placed in a shaking water bath kept at 37° C. Flasks were removed from the bath at specified time points of 1 hour, 4 hours and 24 hours, allowed to cool, and an aliquot taken and filtered.

[3] = test system: dextran sodium sulfate (DSS)-induced acute colitis; test: DSS-induced acute colitis mouse model, exemplary compounds (Example 7); format: in vivo; settings: mice, oral gavage twice daily for 9 days, indirubin molar equivalent of 15 mg/kg
Protocol: Eight week old female C57 BL/6J mice, around 20 g body weight purchased from Charles River Laboratories were bred in specific pathogen free IVC cages (4 mice in each cage) in a temperature controlled (20±2° C.) room with a 12 hour light-dark cycle. Chow pellets and tap water were available ad libitum. All experimental protocols were approved by the Institutional Animal Care and Use Committee. The mice were acclimated at the animal facility for at least of three days before the experiments. To generate dextran sodium sulfate (DSS)-induced acute colitis, the mice were induced with 3% DSS (molecular weight 36,000-50,000; […] DSS solution was freshly prepared and changed daily. These mice were euthanized on day 8 (9th day of the experiment). Body weight and disease activity index (DAI) soring were recorded daily to assess the colitis. DAI score was the sum of the weight loss score, stool score and bleeding subscores. A blinded scoring system was employed to assess the colitis. The DAI scorer blinded to the group information and animal ID was responsible for the stool consistency and bleeding evaluations. DAI scoring standards will be followed as below. A study was conducted as in set forth in Example 6. […] Mice in the vehicle group were given only 200 μL distilled water by gavage.

AhR [4] = target: T1, AhR (Homo sapiens, UniProt P35869); test: AhR/arnt-luciferase reporter assay in human Huh7 cells
T1 sequence (P35869 11-848): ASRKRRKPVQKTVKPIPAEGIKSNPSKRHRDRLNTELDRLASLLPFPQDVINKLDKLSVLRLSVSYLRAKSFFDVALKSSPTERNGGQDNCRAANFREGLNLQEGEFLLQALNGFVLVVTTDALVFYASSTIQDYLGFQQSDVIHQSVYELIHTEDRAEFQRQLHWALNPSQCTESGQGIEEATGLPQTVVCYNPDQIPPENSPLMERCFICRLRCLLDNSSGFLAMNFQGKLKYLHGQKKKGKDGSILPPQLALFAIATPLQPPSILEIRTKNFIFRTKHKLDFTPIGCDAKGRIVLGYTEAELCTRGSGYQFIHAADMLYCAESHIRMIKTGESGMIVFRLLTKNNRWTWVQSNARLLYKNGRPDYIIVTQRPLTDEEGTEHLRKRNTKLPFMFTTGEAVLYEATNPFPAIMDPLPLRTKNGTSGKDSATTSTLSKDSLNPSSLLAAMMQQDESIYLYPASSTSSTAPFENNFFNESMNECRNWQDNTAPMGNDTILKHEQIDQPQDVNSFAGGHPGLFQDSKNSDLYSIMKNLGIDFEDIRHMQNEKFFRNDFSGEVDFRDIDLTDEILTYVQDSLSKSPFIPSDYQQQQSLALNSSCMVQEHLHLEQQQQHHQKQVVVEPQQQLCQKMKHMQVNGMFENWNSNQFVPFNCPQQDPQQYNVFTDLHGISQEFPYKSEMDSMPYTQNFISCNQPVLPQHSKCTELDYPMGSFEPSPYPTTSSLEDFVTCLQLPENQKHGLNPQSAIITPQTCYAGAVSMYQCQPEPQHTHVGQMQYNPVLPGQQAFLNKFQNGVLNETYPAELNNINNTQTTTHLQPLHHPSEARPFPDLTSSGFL
Protocol: (§1) TCDD and MeBio were included in the study as positive controls. These were added into cell culture media containing charcoal-stripped fetal bovine serum to produce a 2× stock and then added to the reporter cells. The reporter cells were human Huh7 cells or Rat H4IIE cell lines with the native AhR and an AhR/arnt-Luciferase reporter vector. The final concentration of DM50 was 0.1%. Cells were incubated for 22 hours at 37° C. prior to addition of the luciferase detection reagent and measurement of activity in relative luminescence units.

[5] = test system: dextran sodium sulfate (DSS)-induced acute colitis; test: DSS-induced acute colitis mouse model, Compound 8 (Example 6); format: in vivo, C57 BL/6J mice; settings: mice, 2 mg/kg/day oral gavage twice daily, 9 day test period
Protocol: Eight week old female C57 BL/6J mice, around 20 g body weight purchased from Charles River Laboratories were bred in specific pathogen free IVC cages (4 mice in each cage) in a temperature controlled (20±2° C.) room with a 12 hour light-dark cycle. Chow pellets and tap water were available ad libitum. All experimental protocols were approved by the Institutional Animal Care and Use Committee. The mice were acclimated at the animal facility for at least of three days before the experiments.
To generate dextran sodium sulfate (DSS)-induced acute colitis, the mice were induced with 3% DSS (molecular weight 36,000-50,000; MP Biomedicals, Santa Ana, CA, USA) in their drinking water for 7 consecutive days, and then switched to normal water. DSS solution was freshly prepared and changed daily. These mice were euthanized on day 8 (9th day of the experiment).
The mice were divided into groups with eight mice in each group. Mice were dosed with either 2 mg/kg/day Compound 8, twice daily in 200 μL distilled water (pH=7.0) by gavage from Day 0 to Day 9. Mice in the vehicle group were given only 200 μL distilled water by gavage.
Body weight and disease activity index (DAI) soring were recorded daily to assess the colitis. DAI score was the sum of the weight loss score, stool score and bleeding subscores. A blinded scoring system was employed to assess the colitis. […]

AhR [6] = target: T2, AhR (Rattus norvegicus, UniProt P41738); test: AhR/arnt-luciferase reporter assay in rat H4IIE cells
T2 sequence (P41738 10-853): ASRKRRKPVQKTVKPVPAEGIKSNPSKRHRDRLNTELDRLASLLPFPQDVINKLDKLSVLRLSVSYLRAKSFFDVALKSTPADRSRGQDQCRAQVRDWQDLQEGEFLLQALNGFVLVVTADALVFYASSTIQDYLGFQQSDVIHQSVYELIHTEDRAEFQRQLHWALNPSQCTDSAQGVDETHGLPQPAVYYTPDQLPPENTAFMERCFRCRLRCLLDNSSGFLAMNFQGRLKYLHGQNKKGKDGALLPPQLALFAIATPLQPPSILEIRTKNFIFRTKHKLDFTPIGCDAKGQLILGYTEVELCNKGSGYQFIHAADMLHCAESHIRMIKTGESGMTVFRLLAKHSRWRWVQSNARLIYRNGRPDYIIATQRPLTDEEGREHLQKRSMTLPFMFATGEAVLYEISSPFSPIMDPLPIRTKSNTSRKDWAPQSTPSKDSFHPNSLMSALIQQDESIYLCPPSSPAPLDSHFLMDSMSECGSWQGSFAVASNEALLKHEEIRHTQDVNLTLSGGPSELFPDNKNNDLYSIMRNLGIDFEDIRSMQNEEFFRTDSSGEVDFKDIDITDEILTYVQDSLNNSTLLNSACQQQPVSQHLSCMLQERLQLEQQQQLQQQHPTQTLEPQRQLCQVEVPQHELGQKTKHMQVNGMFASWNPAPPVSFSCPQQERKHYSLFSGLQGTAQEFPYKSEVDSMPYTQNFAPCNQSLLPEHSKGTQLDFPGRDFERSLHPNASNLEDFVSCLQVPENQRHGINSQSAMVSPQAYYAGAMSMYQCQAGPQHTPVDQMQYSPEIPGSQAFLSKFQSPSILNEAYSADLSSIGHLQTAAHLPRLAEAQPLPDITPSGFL
Protocol: as §1

O=C1Nc2ccccc2/C1=C1/Nc2ccccc2C1=O [synthetic indirubin]
Mean Indirubin Level, Colon [1]: 2.43 ng/g
Mean Indirubin Level, Lung [1]: 2.12 ng/g
Mean Indirubin Level, Plasma [1]: 0.05 ng/mL
% indirubin recovered in solution [2]: 0.1%
Colon length versus vehicle [3]: vehicle only have a shorter colon than those treated with synthetic indirubin

O=C1/C(=C2/C(=O)N(CO)c3ccccc32)Nc2ccccc21 [Compound 8]
EC50 (AhR [4]): 71.5 nM
Activation of the AhR compared with equimolar synthetic indirubin (AhR [4]; human Huh7 and rat H4IIE cells): activates the AhR to an equal or greater extent, and at the same or lower concentration, than an equimolar amount of synthetic indirubin
EC50 greater than the EC50 for indirubin (AhR [4]; human Huh7 cells): about 20%
Disease activity index (DAI) versus placebo [5]: lower disease activity index
EC50 (AhR [6]): 25.6 nM

O=C1/C(=C2/C(=O)N(CN3CCCC3)c3ccccc32)Nc2ccccc21 [Compound 41]
Efficacy (percent of initial body weight, DAI score) [3]: more effective than an equimolar amount of indirubin
